Measured values: patent publication US12498382B2, “Biomarkers for vitiligo” (INCYTE CORPORATION, priority 2019, dated 2025)

Tested on: HaCaT cells
Assay: Normalized expression of target genes in HaCaT cells stimulated with TNFα and IFNγ in presence/absence of JAK inhibitors (QuantiGene Plex)
Format: cell-based, human
Conditions: for MFI, normalized expression of IYK2: gene IYK2; for MFI, normalized expression of IYK2 / MFI, normalized expression of TNF / MFI, normalized expression of VEGFA: HaCaT, normalized to HPRT1, mean ± standard error; for MFI, normalized expression of TNF: gene TNF; for MFI, normalized expression of VEGFA: gene VEGFA
Method: Transformed human keratinocyte (HaCaT) cells were purchased from AddexBio (Catalog #T0020001) and cultured as outlined in Example 5. […] After 48 hours, cell culture media was removed from 24 well plates and replaced with 250 uL of media containing serial diluted drug, then incubated for 15 minutes at 37° C./5% CO2. After drug incubation, 250 uL of combinatory stimulation containing Recombinant Human Interferon gamma (R&D Systems, Catalog #285-IF-100) and Recombinant Human Tumor Necrosis Factor alpha (R&D Systems, Catalog #210-TA-020) was added to plates. The final concentration of Recombinant Human Interferon gamma and Recombinant Human Tumor Necrosis Factor alpha was 25 ng/mL of each cytokine. Cytokine stimulation added to wells containing drug brought the final concentrations for each drug treatment to 25 nM, 50 nM, 100 nM, and 200 nM. Treated plates were mixed by gentle agitation for 30 seconds then incubated for 24 hours at 37° C./5% CO2. At the end of the 24 hour incubation media was immediately removed from each plate.
RNA was isolated from HaCaT cells using the QuantiGene Plex Assay reagents and protocols (Affymetrix, Catalog #QGP-232-M18042302) according to the manufacturer's guidelines. Cells were washed with 1×DPBS then lysed by incubation with provided QuantiGene lysis buffer for 30 minutes at 50-55° C. Cell lysates were incubated for 18-24 hours at 55° C. with capture beads and probe set designed to specifically hybridize to mRNA from targets of interest. Genes included housekeeping genes (e.g., HPRT1 and GAPDH) used for the normalization of the results. After the 18-24 hour incubation signal was amplified utilizing branched DNA methodologies, according to the manufacturer's procedures (Affymetrix, Catalog #QGP-232-M18042302). After hybridization and wash steps assay plate was read on the Luminex 200 and data were expressed as Net Median Fluorescence Intensity. Data was then normalized to the Net Median Fluorescence Intensity of the housekeeping gene HPRT1 (Table 14).

[1] = TNFα+IFNγ 25 ng/mL, Drug Conc 25 nM
[2] = TNFα+IFNγ 25 ng/mL, Drug Conc 50 nM
[3] = TNFα+IFNγ 25 ng/mL, Drug Conc 100 nM
[4] = TNFα+IFNγ 25 ng/mL, Drug Conc 200 nM
[5] = TNFα (25 ng/mL) and IFNγ (25 ng/mL), 1st (lowest, likely 25 nM) of 4 drug conc
[6] = TNFα (25 ng/mL) and IFNγ (25 ng/mL), 2nd (likely 50 nM) of 4 drug conc
[7] = TNFα (25 ng/mL) and IFNγ (25 ng/mL), 3rd (likely 100 nM) of 4 drug conc
[8] = TNFα (25 ng/mL) and IFNγ (25 ng/mL), 4th (highest, likely 200 nM) of 4 drug conc
[9] = drug without TNFα/IFNγ stimulation
[10] = no stimulation, Drug Conc 200 nM

## Cc1n[nH]c(C)c1-c1cnn(C2(CC#N)CN(c3cc(F)c(C(=O)N[C@@H](C)C(F)(F)F)cc3F)C2)c1 [Cpd C, 4-[3-(Cyanomethyl)-3-(3′,5′-dimethyl-1H,1′H-4,4′-bipyrazol-1-yl)azetidin-1-yl]-2,5-difluoro-N-[(1S)-2,2,2-trifluoro-1-methylethyl]benzamide]
[1]
  AREG normalized expression MFI: 703.71 ± 20.69
  CCL17 normalized expression MFI: 2.63 ± 0.4
  CCL18 normalized expression MFI: 2.11 ± 0.28
  FLG normalized expression MFI: 62.5 ± 8.63
  IL6 normalized expression MFI: 135.32 ± 3.36
  IL8 normalized expression MFI: 387.86 ± 17.53
  IL17A normalized expression MFI: 0.87 ± 0.14
  IL22 normalized expression MFI: 1.23 ± 0.21
  IL23A normalized expression MFI: 42.15 ± 1.61
  IL31 normalized expression MFI: 1.52 ± 0.37
  ILIA normalized expression MFI: 1370.52 ± 35.28
  JAK1 normalized expression MFI: 206.29 ± 6.84
  JAK2 normalized expression MFI: 114.94 ± 2.16
  JAK3 normalized expression MFI: 1.02 ± 0.19
  LOR normalized expression MFI: 23.22 ± 10.14
  S100A7 normalized expression MFI: 5.33 ± 1.21
  S100A12 normalized expression MFI: 1.31 ± 0.16
  SERPINB3 normalized expression MFI: 2.58 ± 0.41
  SERPINB4 normalized expression MFI: 3.53 ± 0.5
  STAT1 normalized expression MFI: 3103.89 ± 185.88
  STAT3 normalized expression MFI: 1557.84 ± 58.15
  STAT4 normalized expression MFI: 5.65 ± 0.44
  STAT5A normalized expression MFI: 22.82 ± 1.77
  STAT5B normalized expression MFI: 40.13 ± 1.97
  STAT6 normalized expression MFI: 1020.89 ± 23.57
[2]
  AREG normalized expression MFI: 719.73 ± 30.82
  CCL17 normalized expression MFI: 2.94 ± 0.35
  CCL18 normalized expression MFI: 2.13 ± 0.46
  FLG normalized expression MFI: 59.01 ± 8.69
  IL6 normalized expression MFI: 128.14 ± 6.83
  IL8 normalized expression MFI: 369.89 ± 17.71
  IL17A normalized expression MFI: 1.07 ± 0.16
  IL22 normalized expression MFI: 1.4 ± 0.19
  IL23A normalized expression MFI: 45.16 ± 2.92
  IL31 normalized expression MFI: 1.59 ± 0.33
  ILIA normalized expression MFI: 1308.7 ± 45.12
  JAK1 normalized expression MFI: 194.2 ± 8.24
  JAK2 normalized expression MFI: 107.16 ± 2.86
  JAK3 normalized expression MFI: 0.99 ± 0.16
  LOR normalized expression MFI: 32.81 ± 17.47
  S100A7 normalized expression MFI: 3.62 ± 0.78
  S100A12 normalized expression MFI: 1.18 ± 0.18
  SERPINB3 normalized expression MFI: 2.6 ± 0.69
  SERPINB4 normalized expression MFI: 4.24 ± 1.6
  STAT1 normalized expression MFI: 3049.62 ± 159.5
  STAT3 normalized expression MFI: 1519.61 ± 69.92
  STAT4 normalized expression MFI: 5.41 ± 0.33
  STAT5A normalized expression MFI: 20.71 ± 1.77
  STAT5B normalized expression MFI: 38.42 ± 2.28
  STAT6 normalized expression MFI: 982.62 ± 14.34
[3]
  AREG normalized expression MFI: 669.44 ± 30.13
  CCL17 normalized expression MFI: 3.06 ± 0.47
  CCL18 normalized expression MFI: 2.55 ± 0.87
  FLG normalized expression MFI: 65.04 ± 9.31
  IL6 normalized expression MFI: 112.13 ± 3.37
  IL8 normalized expression MFI: 361.05 ± 16.02
  IL17A normalized expression MFI: 0.89 ± 0.16
  IL22 normalized expression MFI: 1.19 ± 0.2
  IL23A normalized expression MFI: 48.11 ± 1.85
  IL31 normalized expression MFI: 1.49 ± 0.35
  ILIA normalized expression MFI: 1194.29 ± 12.27
  JAK1 normalized expression MFI: 193.28 ± 4.55
  JAK2 normalized expression MFI: 95.51 ± 3.13
  JAK3 normalized expression MFI: 0.99 ± 0.15
  LOR normalized expression MFI: 65.94 ± 37.89
  S100A7 normalized expression MFI: 4.3 ± 1.17
  S100A12 normalized expression MFI: 1.48 ± 0.32
  SERPINB3 normalized expression MFI: 3.63 ± 1.32
  SERPINB4 normalized expression MFI: 7.56 ± 3.67
  STAT1 normalized expression MFI: 3028.93 ± 125.19
  STAT3 normalized expression MFI: 1457.24 ± 54.48
  STAT4 normalized expression MFI: 5.32 ± 0.46
  STAT5A normalized expression MFI: 18.44 ± 1.85
  STAT5B normalized expression MFI: 36.56 ± 1.18
  STAT6 normalized expression MFI: 943.66 ± 25.99
[4]
  AREG normalized expression MFI: 681.68 ± 16.1
  CCL17 normalized expression MFI: 2.59 ± 0.34
  CCL18 normalized expression MFI: 1.74 ± 0.62
  FLG normalized expression MFI: 68.26 ± 8.04
  IL6 normalized expression MFI: 101.17 ± 2.91
  IL8 normalized expression MFI: 350.6 ± 11.85
  IL17A normalized expression MFI: 0.87 ± 0.13
  IL22 normalized expression MFI: 1.14 ± 0.25
  IL23A normalized expression MFI: 51.86 ± 2.95
  IL31 normalized expression MFI: 1.32 ± 0.34
  ILIA normalized expression MFI: 1151.31 ± 20.01
  JAK1 normalized expression MFI: 182.86 ± 4.07
  JAK2 normalized expression MFI: 91.17 ± 2.15
  JAK3 normalized expression MFI: 0.85 ± 0.15
  LOR normalized expression MFI: 37.49 ± 25.57
  S100A7 normalized expression MFI: 3.95 ± 1.14
  S100A12 normalized expression MFI: 1.06 ± 0.2
  SERPINB3 normalized expression MFI: 2.14 ± 0.67
  SERPINB4 normalized expression MFI: 3.54 ± 1.5
  STAT1 normalized expression MFI: 2977.26 ± 166.85
  STAT3 normalized expression MFI: 1483.1 ± 51.73
  STAT4 normalized expression MFI: 5.04 ± 0.36
  STAT5A normalized expression MFI: 17.64 ± 1.46
  STAT5B normalized expression MFI: 36.34 ± 1.97
  STAT6 normalized expression MFI: 966.51 ± 12.3
[5]
  MFI, normalized expression of IYK2: 283.97 ± 8.59
  MFI, normalized expression of TNF: 24.07 ± 1.43
  MFI, normalized expression of VEGFA: 570.27 ± 10.88
[6]
  MFI, normalized expression of IYK2: 273.68 ± 7.44
  MFI, normalized expression of TNF: 26.51 ± 1.84
  MFI, normalized expression of VEGFA: 531.53 ± 11.24
[7]
  MFI, normalized expression of IYK2: 266 ± 6.82
  MFI, normalized expression of TNF: 25.93 ± 1.59
  MFI, normalized expression of VEGFA: 514.04 ± 7.46
[8]
  MFI, normalized expression of IYK2: 263.49 ± 5.05
  MFI, normalized expression of TNF: 24.73 ± 1.29
  MFI, normalized expression of VEGFA: 492.12 ± 8.32
[9]
  MFI, normalized expression of IYK2: 205.57 ± 10.87
  MFI, normalized expression of TNF: 2.19 ± 0.56
  MFI, normalized expression of VEGFA: 199.88 ± 6.52
[10]
  AREG normalized expression MFI: 242.5 ± 16.14
  CCL17 normalized expression MFI: 0.99 ± 0.28
  CCL18 normalized expression MFI: 1.56 ± 0.73
  FLG normalized expression MFI: 211.48 ± 29.55
  IL6 normalized expression MFI: 4.97 ± 0.36
  IL8 normalized expression MFI: 55.48 ± 3.11
  IL17A normalized expression MFI: 0.51 ± 0.1
  IL22 normalized expression MFI: 0.71 ± 0.11
  IL23A normalized expression MFI: 9.42 ± 0.97
  IL31 normalized expression MFI: 0.79 ± 0.2
  ILIA normalized expression MFI: 88.72 ± 5.9
  JAK1 normalized expression MFI: 159.13 ± 7.08
  JAK2 normalized expression MFI: 23.67 ± 0.92
  JAK3 normalized expression MFI: 0.63 ± 0.1
  LOR normalized expression MFI: 19.48 ± 9.66
  S100A7 normalized expression MFI: 4.38 ± 1.15
  S100A12 normalized expression MFI: 0.72 ± 0.18
  SERPINB3 normalized expression MFI: 2.31 ± 0.77
  SERPINB4 normalized expression MFI: 3.37 ± 1.57
  STAT1 normalized expression MFI: 522.12 ± 14.19
  STAT3 normalized expression MFI: 728.97 ± 20.48
  STAT4 normalized expression MFI: 4.01 ± 0.45
  STAT5A normalized expression MFI: 1.44 ± 0.41
  STAT5B normalized expression MFI: 50.91 ± 4.38
  STAT6 normalized expression MFI: 723.56 ± 20.76
